Entries after “also recorded” stand apart in the source; their conditions may differ. Like-named read-outs stand apart in the source and are kept apart here.
How the values were obtained:
[1] = system: colon cancer cells; conditions: cited from earlier work
[2] = system: cdx2; assay: Northern analysis of cdx2 expression in HT29 cells; type: cell-based, human; conditions: after 5-Aza-CdR
Description: (§1) Cell Culture and Drug Treatments. […] Northern blotting.

[3] = system: RDH5; assay: Northern analysis of RDH5 expression in HCT116 cells; type: cell-based, human; conditions: 5-Aza-CdR
Description: as §1

[4] = system: HT29 cells; conditions: found previously (56); cited from earlier work
[5] = system: HCT116 cells; conditions: following 5-Aza-CdR treatment; cited from earlier work
[6] = system: RA response genes in HT29 cells; assay: Microarray analysis of RA response gene expression in HT29 cells; type: cell-based, human
Description: (§2) Cell Culture and Drug Treatments.
(§3) Microarray Analysis. Slides were produced using a Generation m Microarray Spotter (Molecular Dynamics). Each microarray contained 4608 minimally redundant cDNAs spotted in duplicate on 3-aminopropyl-trimethoxy silane (Sigma) coated slides and UV crosslinked in a Stratalinker (Stratagene). The cDNA clones on the microarray were obtained from Research Genetics and Genome Systems. […] . Cultures were transferred to a multiscreen 96-well glass fiber filtration plate (Millipore) and growth medium voided. Twenty-five μl of 25 mM Tris-HCl, pH 8; 10 mM EDTA, 50 μl of 0.2N NaOH, 1% SDS and 160 μl of 0.7M potassium acetate, pH 4.8; 5.3M guanidine hydrochloride were added to each well of the glass filtration plate. Cell lysates were drawn through the glass filters under vacuum and filter-bound DNA was washed four times with 200 μl of 80% ethanol. Plasmid DNAs were eluted by centrifugation following the addition of 65 μl of distilled H2O. Samples were collected in a 96-well microtiter dish during centrifugation.
(§4) Generation of microarray probes, microarray hybridizations, and scanning Total RNA was isolated using Trizol reagent (Invitrogen) and poly-A RNA was selected using an Oligotex Kit (Qiagen). […]
(§5) Hybridizations were performed overnight at 42° C. in a humidified chamber. […] Fluorescent intensities were quantified using ArrayVision 4.0 (Imaging Research).

[7] = system: RA response genes in HCT116 cells; assay: Microarray analysis of RA response gene expression in HCT116 cells; type: cell-based, human; conditions: 5 μM 5-Aza-CdR
Description: as §2, §3, §4, §5

[8] = system: RDHL; assay: Northern analysis of RDHL expression in HT29 cells; type: cell-based, human; conditions: 5 μM 5-Aza-CdR, cultured 6 days
Description: as §1

[9] = system: RDH5; assay: Northern analysis of RDH5 expression in HT29 cells; conditions: after 5-Aza-CdR treatment
[10] = system: RDHL; assay: Northern analysis of RDHL in HT29 APC-inducible cells; type: cell-based, human; conditions: 100 μM ZnCl2 24 h vs water, normalized to GAPDH
Description: as §1

[11] = system: RDHL; assay: Northern analysis of RDHL in HT29 β-galactosidase-inducible cells; type: cell-based, human; conditions: HT29 β-galactosidase-inducible cells (negative control); 100 μM ZnCl2 24 h vs water
Description: as §1

[12] = system: cdx2; assay: Northern analysis of cdx2 in HT29 APC-inducible cells; type: cell-based, human; conditions: 100 μM ZnCl2 24 h, data not shown
Description: as §1

SMILES: C[C@]12CC[C@H]3[C@@H](CCC4=CC(=O)CC[C@@]43C)[C@@H]1CC[C@@H]2O [testosterone]
- cell growth of colon cancer cells ([1]; another group (87)): increased cell growth
- cell growth of colon cancer cells ([1]; one study (86)): failed to affect cell growth

SMILES: Nc1ncn([C@H]2C[C@H](O)[C@@H](CO)O2)c(=O)n1 [5-Aza-CdR, 5-aza-2′-deoxycytidine]
- cdx2 expression [2]: induction of cdx2
- RDH5 expression [3]: no effect
- differentiation and differentiation markers [4]: stimulates biological aspects of differentiation and the appearance of differentiation markers
- markers of differentiation [5]: few markers of differentiation
- RA responsiveness of RA response genes ([6]; 5 μM 5-Aza-CdR 10 days, then 1 μM RA 24 h): conferred RA responsiveness
- RA response gene expression ([6]; 5 μM 5-Aza-CdR on day 0, cultured 10 days, microarray vs PBS/ethanol): enhances
- RA response gene expression [7]: not induced
- RDHL expression [8]: expression of RDHL only after treatment with 5-Aza-CdR; also recorded: re-expressed
- RDH5 levels [9]: slightly increased; also recorded: re-expressed

SMILES: [Cl-].[Cl-].[Zn+2] [ZnCl2]
- fold RDHL induction [10]: 3.2 fold
- fold RDHL induction [11]: 1.2 fold
- cdx2 induction after re-introduction of APC [12]: no cdx2 induction

SMILES: CC(=O)[C@H]1CC[C@H]2[C@@H]3CCC4=CC(=O)CC[C@]4(C)[C@H]3CC[C@]12C [progesterone]
- cell growth of colon cancer cells ([1]; one study (86)): failed to affect cell growth

Reference: patent publication US20050245440A1, “Regulation of a novel colon specific retinol dehydrogenase by apc and cdx2” (University of Utah Research Foundation, priority 2002, published 2005)
